# Measured values published in patent publication EP0154117B1 (dated 1985).
# Tests used:
# [1] = tested on: alloreactive cytolytic T lymphocytes (CTL); assay: Induction of alloreactive cytolytic T lymphocytes (CTL) in MLC, 51Cr-release microcytotoxicity assay with P815 target cells; assay type: cell-based, mouse; conditions: for minimum doses required to cause a significant effect (CTL generation in MLC): compared to control CTL generated in drug-free MLC
# B6 Lymphocytes [2] = assay: Proliferative response of mouse lymphocytes to alloantigens in mixed lymphocyte cultures (MLC); assay type: cell-based; conditions: 10-^2 and 10^-4 µg/ml; one-way, 5-day MLC
# B6 Mice [3] = assay: Suppressor cells in treated mice: lymphocytes of treated mice added to a conventional MLC; assay type: in vivo, mouse; conditions: 3 mg/kg; lymphocytes obtained 5 weeks later; 1-5x10^6 cells added to MLC; dose related
# B6 Mice [4] = assay: Immunosuppression in vivo: lymphocytes from treated mice stimulated in MLC and tested for CTL cytotoxicity; parameters: species or system mouse; conditions: for cytotoxicity of effector cells from treated mice: after 30 days of treatment
# B6 Lymphocytes [5] = assay: Proliferative responses of lymphocytes to Con A and LPS (3H-TdR incorporation); conditions: 1 to 10-^2 µg/ml
smiles,measurement,setting,value
"COc1cccc2c1C(=O)c1c(O)c3c(c(O)c1C2=O)C[C@@](O)(C(=O)CO)C[C@@H]3O[C@H]1C[C@H](N)[C@H](O)[C@H](C)O1 [Adriamycin, reference compound]",minimum doses required to cause a significant effect (CTL generation in MLC),[1],10^-1 µg/ml
"Cl.Cl.O=C1c2c(O)ccc(O)c2C(=O)c2c(NCCNCCO)ccc(NCCNCCO)c21 [Novantrone^TM, reference compound]",minimum doses required to cause a significant effect (CTL generation in MLC),[1],10^-3 µg/ml
Cl.Cl.NCCNc1ccc(NCCN)c2c1C(=O)c1c(O)ccc(O)c1C2=O,proliferation of B6 lymphocytes stimulated by D2 lymphocytes,B6 Lymphocytes [2],significantly prevented
same,generation of CTL,[1]; 1 to 10-^4 µg/ml in MLC,complete failure to generate CTL
same,% lysis (CTL activity),"[1]; 10-^3 µg/ml added 2 days after setting up MLC, p < 0.001 vs control (% lysis = 52.0)",22.0%
same,% lysis (CTL activity),"[1]; 10-^3 µg/ml added at the same time as initiation of MLC, control % lysis = 52.0",2.7%
same,% lysis (CTL activity),"[1]; 10-^3 µg/ml added one day after initiation of MLC, control % lysis = 52.0",6.4%
same,generation of CTL,[1]; 10-^4 mcg/ml,consistent failure to generate CTL
same,% lysis (CTL activity),"[1]; 10-^5 mcg/mi added to MLC, p < 0.01 vs control CTL (% lysis = 45.7), 5 days",37.0%
same,duration of the suppressive effect (suppression after removal of compound),"[1]; 10^-3 µg/ml, compound removed from 1 MLC each day by washing, CTL tested after five days",irreversible
same,effect of cells from drug treated mice on CTL generation by normal lymphocytes,B6 Mice [3],significantly prevented normal lymphocytes from becoming effective CTL
same,CTL generation of lymphocytes from treated mice,"B6 Mice [4]; 0.3 mg/kg, day 23 post treatment",typical CTL generation was evident
same,CTL generation by lymphocytes from drug-treated mice,"B6 Mice [4]; 3 mg/kg i.p., lymphocytes prepared 2 weeks later, 5-day MLC, all E:T ratios tested",failed to become effective CTL
same,cytotoxicity of effector cells from treated mice,B6 Mice [4]; 0.3 and 0.75 mg/kg,normal level of cytotoxicity
same,CTL activity of lymphocytes from treated mice,"B6 Mice [4]; 0.3 to 3.0 mg/kg, day 10 after treatment",no CTL activity
same,cytotoxicity of effector cells from treated mice,B6 Mice [4]; 1.5 an 3.0 mg/kg,still unable to do so
same,proliferation of these cells (Con A or LPS stimulated),B6 Lymphocytes [5],completely abolished
